PMC8632988, “Inhibition of SYK and cSrc kinases can protect bone and cartilage in preclinical models of osteoarthritis and rheumatoid arthritis” (Scientific Reports, 2021)

Key:
Assay in all cases: Kinase selectivity profile assay
Type in all cases: biochemical
PLK3 = biological target: T1, PLK3 (Homo sapiens, UniProt Q9H4B4); details: 500 nM; relative to DMSO; read-out: Residual enzymatic activity
T1 construct: purchased Reaction Biology Corporation
Description: (§1) The activity of MT-SYK-03 against cSrc kinase and selectivity profile towards other 341 kinases was determined at Reaction Biology Corporation (Malvern, PA, USA) using the standard kinase assay protocol. […]; unbound phosphate was removed by extensive washing of filters in phosphoric acid. Kinase activity data was expressed as the percent remaining kinase activity in test samples compared to vehicle (dimethyl sulfoxide) reactions based on the radioactivity of reaction products (see Table S2). Experiment was replicated twice.

CK1d = biological target: T2, CK1d (Homo sapiens, UniProt P48730); details: 500 nM; relative to DMSO; read-out: Residual enzymatic activity
T2 construct: purchased Reaction Biology Corporation
T2 sequence (P48730 whole entry): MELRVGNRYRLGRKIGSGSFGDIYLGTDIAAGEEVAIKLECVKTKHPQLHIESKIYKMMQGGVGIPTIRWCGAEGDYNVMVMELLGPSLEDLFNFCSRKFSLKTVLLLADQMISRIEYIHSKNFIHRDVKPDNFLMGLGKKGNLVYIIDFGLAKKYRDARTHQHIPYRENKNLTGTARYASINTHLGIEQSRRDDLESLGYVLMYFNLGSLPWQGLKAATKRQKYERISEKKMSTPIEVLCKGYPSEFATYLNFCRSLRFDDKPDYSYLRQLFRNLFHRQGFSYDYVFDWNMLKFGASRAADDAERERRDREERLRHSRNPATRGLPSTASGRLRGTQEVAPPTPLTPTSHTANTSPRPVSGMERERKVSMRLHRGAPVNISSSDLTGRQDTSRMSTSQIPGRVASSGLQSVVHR
Description: as §1

DMPK2 = biological target: T3, DMPK2 (Homo sapiens, UniProt Q6DT37); details: read-out: Residual enzymatic activity
T3 construct: purchased Reaction Biology Corporation
Description: as §1

TLK1 = biological target: T4, TLK1 (Homo sapiens, UniProt Q9UKI8); details: 500 nM; relative to DMSO; read-out: Residual enzymatic activity
T4 construct: purchased Reaction Biology Corporation
Description: as §1

TRKB = biological target: T5, TRKB (Homo sapiens, UniProt Q16620); details: 500 nM; relative to DMSO; read-out: Residual enzymatic activity
T5 construct: purchased Reaction Biology Corporation
Description: as §1

CK2a = biological target: T6, CK2a (Homo sapiens, UniProt P68400); details: 500 nM; relative to DMSO; read-out: Residual enzymatic activity
T6 construct: purchased Reaction Biology Corporation
Description: as §1

CAMK2d = biological target: T7, CAMK2d (Homo sapiens, UniProt Q13557); details: 500 nM; relative to DMSO; read-out: Residual enzymatic activity
T7 construct: purchased Reaction Biology Corporation
Description: as §1

FGFR3 = biological target: T8, FGFR3 (Homo sapiens, UniProt P22607); details: 500 nM; relative to DMSO; read-out: Residual enzymatic activity
T8 construct: purchased Reaction Biology Corporation
Description: as §1

ERK1 = biological target: T9, ERK1 (Homo sapiens, UniProt P27361); details: 500 nM; relative to DMSO; read-out: Residual enzymatic activity
T9 construct: purchased Reaction Biology Corporation
Description: as §1

MST4 = biological target: T10, MST4 (Homo sapiens, UniProt Q9P289); details: 500 nM; relative to DMSO; read-out: Residual enzymatic activity
T10 construct: purchased Reaction Biology Corporation
Description: as §1

RSK3 = biological target: T11, RSK3 (Homo sapiens, UniProt Q15349); details: 500 nM; relative to DMSO; read-out: Residual enzymatic activity
T11 construct: purchased Reaction Biology Corporation
Description: as §1

FLT4/VEGFR3 = biological target: T12, FLT4/VEGFR3 (Homo sapiens, UniProt P35916); details: 500 nM; relative to DMSO; read-out: Residual enzymatic activity
T12 construct: purchased Reaction Biology Corporation (assay service)
Description: as §1

PKCmu/PRKD1 = biological target: T13, PKCmu/PRKD1 (Homo sapiens, UniProt Q15139); details: 500 nM; relative to DMSO; read-out: Residual enzymatic activity
T13 construct: purchased Reaction Biology Corporation
T13 sequence (Q15139 whole entry): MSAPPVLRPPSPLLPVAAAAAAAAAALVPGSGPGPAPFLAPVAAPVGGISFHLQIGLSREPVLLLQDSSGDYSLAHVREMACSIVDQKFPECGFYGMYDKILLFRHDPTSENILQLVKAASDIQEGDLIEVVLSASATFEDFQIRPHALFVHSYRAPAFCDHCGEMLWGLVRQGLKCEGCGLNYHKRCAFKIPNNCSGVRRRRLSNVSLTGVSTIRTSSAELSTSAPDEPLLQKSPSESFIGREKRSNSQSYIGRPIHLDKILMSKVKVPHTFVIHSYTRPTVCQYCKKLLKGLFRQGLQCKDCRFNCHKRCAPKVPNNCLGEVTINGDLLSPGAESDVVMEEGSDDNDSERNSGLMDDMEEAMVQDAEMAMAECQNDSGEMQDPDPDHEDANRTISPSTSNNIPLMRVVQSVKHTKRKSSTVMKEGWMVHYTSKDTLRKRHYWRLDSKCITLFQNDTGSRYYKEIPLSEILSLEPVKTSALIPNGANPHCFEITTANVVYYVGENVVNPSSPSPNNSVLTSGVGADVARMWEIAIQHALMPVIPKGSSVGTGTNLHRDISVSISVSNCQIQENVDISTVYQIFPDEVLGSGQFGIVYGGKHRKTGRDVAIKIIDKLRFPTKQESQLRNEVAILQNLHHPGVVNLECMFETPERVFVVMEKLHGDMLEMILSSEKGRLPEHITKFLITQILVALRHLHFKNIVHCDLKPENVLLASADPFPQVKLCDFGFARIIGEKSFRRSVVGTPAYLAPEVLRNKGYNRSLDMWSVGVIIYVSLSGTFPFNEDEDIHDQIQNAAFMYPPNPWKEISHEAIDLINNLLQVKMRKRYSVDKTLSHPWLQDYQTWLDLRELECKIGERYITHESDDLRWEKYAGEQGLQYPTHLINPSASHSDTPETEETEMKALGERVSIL
Description: as §1

TAOK3/JIK = biological target: T14, TAOK3/JIK (Homo sapiens, UniProt Q9H2K8); details: 500 nM; relative to DMSO; read-out: Residual enzymatic activity
T14 construct: purchased Reaction Biology Corporation
Description: as §1

PKN2/PRK2 = biological target: T15, PKN2/PRK2 (Homo sapiens, UniProt Q16513); details: 500 nM; relative to DMSO; read-out: Residual enzymatic activity
T15 construct: purchased Reaction Biology Corporation
T15 sequence (Q16513 whole entry): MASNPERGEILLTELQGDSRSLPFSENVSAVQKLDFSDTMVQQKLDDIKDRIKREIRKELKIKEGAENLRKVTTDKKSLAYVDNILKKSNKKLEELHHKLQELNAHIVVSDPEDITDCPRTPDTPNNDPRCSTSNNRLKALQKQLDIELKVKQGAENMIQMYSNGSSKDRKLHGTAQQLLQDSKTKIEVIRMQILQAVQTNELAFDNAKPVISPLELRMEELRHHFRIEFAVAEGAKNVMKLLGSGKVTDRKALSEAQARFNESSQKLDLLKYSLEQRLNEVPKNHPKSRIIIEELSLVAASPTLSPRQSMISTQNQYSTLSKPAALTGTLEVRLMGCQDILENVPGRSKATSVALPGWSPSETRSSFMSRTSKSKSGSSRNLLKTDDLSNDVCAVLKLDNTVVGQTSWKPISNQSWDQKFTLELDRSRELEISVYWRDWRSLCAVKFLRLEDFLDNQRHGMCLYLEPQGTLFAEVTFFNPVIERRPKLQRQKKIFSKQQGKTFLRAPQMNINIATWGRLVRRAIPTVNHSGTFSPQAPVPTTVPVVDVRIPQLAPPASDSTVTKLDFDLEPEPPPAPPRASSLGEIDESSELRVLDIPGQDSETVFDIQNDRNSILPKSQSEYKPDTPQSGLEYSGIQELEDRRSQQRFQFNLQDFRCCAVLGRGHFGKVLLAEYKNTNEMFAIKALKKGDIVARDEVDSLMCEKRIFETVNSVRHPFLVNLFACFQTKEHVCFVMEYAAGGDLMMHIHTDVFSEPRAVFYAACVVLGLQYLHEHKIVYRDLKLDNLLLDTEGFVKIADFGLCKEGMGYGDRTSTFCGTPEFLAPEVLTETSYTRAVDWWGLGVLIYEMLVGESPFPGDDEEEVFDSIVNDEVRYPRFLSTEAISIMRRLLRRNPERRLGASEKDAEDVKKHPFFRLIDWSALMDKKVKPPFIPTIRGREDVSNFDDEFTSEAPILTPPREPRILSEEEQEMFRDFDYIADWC
Description: as §1

RON/MST1R = biological target: T16, RON/MST1R (Homo sapiens, UniProt Q04912); details: 500 nM; relative to DMSO; read-out: Residual enzymatic activity
T16 construct: purchased Reaction Biology Corporation
Description: as §1

PKA = biological target: T17, PKA (Homo sapiens, UniProt P17612); details: 500 nM; relative to DMSO; read-out: Residual enzymatic activity
T17 construct: purchased Reaction Biology Corporation
Description: as §1

CDK2/Cyclin A1 = biological target: T18, CDK2/Cyclin A1 (Homo sapiens, UniProt P24941); details: 500 nM; relative to DMSO; read-out: Residual enzymatic activity
T18 construct: purchased Reaction Biology Corporation
Description: as §1

DMPK = biological target: T19, DMPK (Homo sapiens, UniProt Q09013); details: 500 nM; relative to DMSO; read-out: Residual enzymatic activity
T19 construct: purchased Reaction Biology Corporation
Description: as §1

HIPK4 = biological target: T20, HIPK4 (Homo sapiens, UniProt Q8NE63); details: 500 nM; relative to DMSO; read-out: Residual enzymatic activity
T20 construct: purchased Reaction Biology Corporation
Description: as §1

DAPK1 = biological target: T21, DAPK1 (Homo sapiens, UniProt P53355); details: 500 nM; relative to DMSO; read-out: Residual enzymatic activity
T21 construct: purchased Reaction Biology Corporation
Description: as §1

PDK1/PDPK1 = biological target: T22, PDK1/PDPK1 (Homo sapiens, UniProt O15530); details: 500 nM; relative to DMSO; read-out: Residual enzymatic activity
T22 construct: purchased Reaction Biology Corporation
Description: as §1

PKCg = biological target: T23, PKCg (Homo sapiens, UniProt P05129); details: 500 nM; relative to DMSO; read-out: Residual enzymatic activity
T23 construct: purchased Reaction Biology Corporation
Description: as §1

TNIK = biological target: T24, TNIK (Homo sapiens, UniProt Q9UKE5); details: 500 nM; relative to DMSO; read-out: Residual enzymatic activity
T24 construct: purchased Reaction Biology Corporation
Description: as §1

GRK3 = biological target: T25, GRK3 (Homo sapiens, UniProt P35626); details: 500 nM; relative to DMSO; read-out: Residual enzymatic activity
T25 construct: purchased Reaction Biology Corporation
Description: as §1

TESK1 = biological target: T26, TESK1 (Homo sapiens, UniProt Q15569); details: 500 nM; relative to DMSO; read-out: Residual enzymatic activity
T26 construct: purchased Reaction Biology Corporation
Description: as §1

RSK1 = biological target: T27, RSK1 (Homo sapiens, UniProt Q15418); details: 500 nM; relative to DMSO; read-out: Residual enzymatic activity
T27 construct: purchased Reaction Biology Corporation
T27 sequence (Q15418 whole entry): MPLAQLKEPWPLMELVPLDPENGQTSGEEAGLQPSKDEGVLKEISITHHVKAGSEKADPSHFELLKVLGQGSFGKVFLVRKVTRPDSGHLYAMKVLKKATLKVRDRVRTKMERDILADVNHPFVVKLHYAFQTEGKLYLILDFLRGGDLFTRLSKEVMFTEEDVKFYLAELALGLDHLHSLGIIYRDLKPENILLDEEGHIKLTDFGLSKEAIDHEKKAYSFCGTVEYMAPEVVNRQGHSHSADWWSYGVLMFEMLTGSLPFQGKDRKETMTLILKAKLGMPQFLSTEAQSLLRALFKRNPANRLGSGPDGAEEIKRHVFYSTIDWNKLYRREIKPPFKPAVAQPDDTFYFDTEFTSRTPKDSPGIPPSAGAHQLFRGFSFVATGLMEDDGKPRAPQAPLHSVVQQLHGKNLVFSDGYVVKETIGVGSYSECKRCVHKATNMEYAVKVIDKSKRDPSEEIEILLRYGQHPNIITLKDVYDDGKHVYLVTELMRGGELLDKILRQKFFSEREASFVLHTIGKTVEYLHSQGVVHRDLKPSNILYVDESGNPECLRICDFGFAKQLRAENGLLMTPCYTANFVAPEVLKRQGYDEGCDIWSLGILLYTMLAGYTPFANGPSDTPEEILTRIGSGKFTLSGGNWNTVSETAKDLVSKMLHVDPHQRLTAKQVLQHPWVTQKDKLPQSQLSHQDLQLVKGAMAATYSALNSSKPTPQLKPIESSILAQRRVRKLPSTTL
Description: as §1

GSK3a = biological target: T28, GSK3a (Homo sapiens, UniProt P49840); details: 500 nM; relative to DMSO; read-out: Residual enzymatic activity
T28 construct: purchased Reaction Biology Corporation
Description: as §1

NEK6 = biological target: T29, NEK6 (Homo sapiens, UniProt Q9HC98); details: 500 nM; relative to DMSO; read-out: Residual enzymatic activity
T29 construct: purchased Reaction Biology Corporation
Description: as §1

STK33 = biological target: T30, STK33 (Homo sapiens, UniProt Q9BYT3); details: 500 nM; relative to DMSO; read-out: Residual enzymatic activity
T30 construct: purchased Reaction Biology Corporation
T30 sequence (Q9BYT3 whole entry): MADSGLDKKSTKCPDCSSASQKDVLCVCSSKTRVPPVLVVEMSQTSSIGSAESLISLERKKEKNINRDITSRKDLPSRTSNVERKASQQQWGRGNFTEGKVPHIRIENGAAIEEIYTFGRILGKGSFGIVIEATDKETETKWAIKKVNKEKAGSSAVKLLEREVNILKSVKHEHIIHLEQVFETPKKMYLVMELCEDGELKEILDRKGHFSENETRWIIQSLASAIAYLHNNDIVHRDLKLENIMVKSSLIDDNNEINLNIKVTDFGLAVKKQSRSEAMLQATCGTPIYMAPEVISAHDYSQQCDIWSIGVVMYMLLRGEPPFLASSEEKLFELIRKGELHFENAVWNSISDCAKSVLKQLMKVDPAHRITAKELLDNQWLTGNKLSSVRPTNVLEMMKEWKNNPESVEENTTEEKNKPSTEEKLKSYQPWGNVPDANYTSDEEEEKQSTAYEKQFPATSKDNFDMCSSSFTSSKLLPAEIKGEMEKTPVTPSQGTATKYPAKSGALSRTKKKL
Description: as §1

PAK4 = biological target: T31, PAK4 (Homo sapiens, UniProt O96013); details: 500 nM; relative to DMSO; read-out: Residual enzymatic activity
T31 construct: purchased Reaction Biology Corporation
Description: as §1

VRK2 = biological target: T32, VRK2 (Homo sapiens, UniProt Q86Y07); details: read-out: Residual enzymatic activity
T32 construct: purchased Reaction Biology Corporation
Description: as §1

TIE2/TEK = biological target: T33, TIE2/TEK (Homo sapiens, UniProt Q02763); details: 500 nM; relative to DMSO; read-out: Residual enzymatic activity
T33 construct: purchased Reaction Biology Corporation
Description: as §1

HPK1/MAP4K1 = biological target: T34, HPK1/MAP4K1 (Homo sapiens, UniProt Q92918); details: 500 nM; relative to DMSO; read-out: Residual enzymatic activity
T34 construct: purchased Reaction Biology Corporation
T34 sequence (Q92918 whole entry): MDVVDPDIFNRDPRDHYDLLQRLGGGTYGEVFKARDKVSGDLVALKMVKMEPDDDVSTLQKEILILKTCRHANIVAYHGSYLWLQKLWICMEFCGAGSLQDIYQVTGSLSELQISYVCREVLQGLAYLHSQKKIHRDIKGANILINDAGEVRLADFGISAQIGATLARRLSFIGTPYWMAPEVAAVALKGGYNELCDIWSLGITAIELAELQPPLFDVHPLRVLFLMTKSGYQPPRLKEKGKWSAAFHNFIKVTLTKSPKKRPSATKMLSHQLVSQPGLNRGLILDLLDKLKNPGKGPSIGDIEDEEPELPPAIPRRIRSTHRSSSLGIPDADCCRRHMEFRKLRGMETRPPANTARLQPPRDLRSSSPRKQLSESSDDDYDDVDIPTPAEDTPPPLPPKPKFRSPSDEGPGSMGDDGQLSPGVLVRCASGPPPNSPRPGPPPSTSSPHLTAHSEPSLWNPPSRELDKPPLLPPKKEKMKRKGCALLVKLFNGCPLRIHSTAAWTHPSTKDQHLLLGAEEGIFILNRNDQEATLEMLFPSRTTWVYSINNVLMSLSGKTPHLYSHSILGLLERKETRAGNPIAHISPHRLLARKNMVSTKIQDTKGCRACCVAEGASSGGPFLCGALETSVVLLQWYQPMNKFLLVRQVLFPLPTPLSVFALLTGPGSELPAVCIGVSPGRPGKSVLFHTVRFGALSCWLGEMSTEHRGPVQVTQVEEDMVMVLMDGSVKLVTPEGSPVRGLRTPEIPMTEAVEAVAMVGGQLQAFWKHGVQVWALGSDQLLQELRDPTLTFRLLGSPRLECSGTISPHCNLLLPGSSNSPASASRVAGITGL
Description: as §1

LCK2/ICK = biological target: T35, LCK2/ICK (Homo sapiens, UniProt Q9UPZ9); details: 500 nM; relative to DMSO; read-out: Residual enzymatic activity
T35 construct: purchased Reaction Biology Corporation
Description: as §1

DYRK1B = biological target: T36, DYRK1B (Homo sapiens, UniProt Q9Y463); details: 500 nM; relative to DMSO; read-out: Residual enzymatic activity
T36 construct: purchased Reaction Biology Corporation
T36 sequence (Q9Y463 whole entry): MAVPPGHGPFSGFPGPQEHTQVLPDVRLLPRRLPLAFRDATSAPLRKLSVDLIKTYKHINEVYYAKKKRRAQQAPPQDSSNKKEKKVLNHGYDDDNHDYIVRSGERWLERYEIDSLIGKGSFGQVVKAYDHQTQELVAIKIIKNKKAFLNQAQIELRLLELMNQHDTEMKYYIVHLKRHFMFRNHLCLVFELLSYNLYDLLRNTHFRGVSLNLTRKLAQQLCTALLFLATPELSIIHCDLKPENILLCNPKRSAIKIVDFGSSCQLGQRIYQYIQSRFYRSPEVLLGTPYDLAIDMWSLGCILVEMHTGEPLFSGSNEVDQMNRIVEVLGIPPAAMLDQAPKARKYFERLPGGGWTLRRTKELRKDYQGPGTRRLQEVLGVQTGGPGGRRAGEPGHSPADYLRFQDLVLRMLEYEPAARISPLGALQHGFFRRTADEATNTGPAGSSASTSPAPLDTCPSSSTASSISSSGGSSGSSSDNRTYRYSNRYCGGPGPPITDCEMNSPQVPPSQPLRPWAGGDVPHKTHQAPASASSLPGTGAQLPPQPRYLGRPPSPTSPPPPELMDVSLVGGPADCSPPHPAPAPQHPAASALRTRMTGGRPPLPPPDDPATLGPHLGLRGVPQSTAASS
Description: as §1

CDK7/cyclin H = biological target: T37, CDK7/cyclin H (Homo sapiens, UniProt P50613); details: 500 nM; relative to DMSO; read-out: Residual enzymatic activity
T37 construct: purchased Reaction Biology Corporation
Description: as §1

EPHA4 = biological target: T38, EPHA4 (Homo sapiens, UniProt P54764); details: 500 nM; relative to DMSO; read-out: Residual enzymatic activity
T38 construct: purchased Reaction Biology Corporation
Description: as §1

CLK4 = biological target: T39, CLK4 (Homo sapiens, UniProt Q9HAZ1); details: 500 nM; relative to DMSO; read-out: Residual enzymatic activity
T39 construct: purchased Reaction Biology Corporation
Description: as §1

DLK/MAP3K12 = biological target: T40, DLK/MAP3K12 (Homo sapiens, UniProt Q12852); details: 500 nM; relative to DMSO; read-out: Residual enzymatic activity
T40 construct: purchased Reaction Biology Corporation
Description: as §1

COc1cc(Nc2ncc(F)c(Nc3ccc4c(n3)NC(=O)C(C)(C)O4)n2)cc(OC)c1OC [R406, reference compound]
remaining activity at 0.5 µM (PLK3): 53.1% | remaining activity at 0.5 µM (CK1d): 78.7% | remaining activity at 0.5 µM (DMPK2): 57.5% | remaining activity at 0.5 µM (TLK1): 75.1% | remaining activity at 0.5 µM (TRKB): 28% | remaining activity at 0.5 µM (CK2a): 50.8% | remaining activity at 0.5 µM (CAMK2d): 98.9% | remaining activity at 0.5 µM (FGFR3): 17.4% | remaining activity at 0.5 µM (ERK1): 97.4% | remaining activity at 0.5 µM (MST4): 94.8% | remaining activity at 0.5 µM (RSK3): 52% | remaining activity at 0.5 µM (FLT4/VEGFR3): 4.9% | remaining activity at 0.5 µM (PKCmu/PRKD1): 82.1% | remaining activity at 0.5 µM (TAOK3/JIK): 77.2% | remaining activity at 0.5 µM (PKN2/PRK2): 85.4% | remaining activity at 0.5 µM (RON/MST1R): 47.9% | remaining activity at 0.5 µM (PKA): 50.8% | remaining activity at 0.5 µM (CDK2/Cyclin A1): 59.5% | remaining activity at 0.5 µM (DMPK): 90.5% | remaining activity at 0.5 µM (HIPK4): 92.9% | remaining activity at 0.5 µM (DAPK1): 65.2% | remaining activity at 0.5 µM (PDK1/PDPK1): 30.7% | remaining activity at 0.5 µM (PKCg): 63.6% | remaining activity at 0.5 µM (TNIK): 83.1% | remaining activity at 0.5 µM (GRK3): 102% | remaining activity at 0.5 µM (TESK1): 85.7% | remaining activity at 0.5 µM (RSK1): 66.9% | remaining activity at 0.5 µM (GSK3a): 27.5% | remaining activity at 0.5 µM (NEK6): 70.5% | remaining activity at 0.5 µM (STK33): 41.5% | remaining activity at 0.5 µM (PAK4): 53.9% | remaining activity at 0.5 µM (VRK2): 131% | remaining activity at 0.5 µM (TIE2/TEK): 69.9% | remaining activity at 0.5 µM (HPK1/MAP4K1): 98.8% | remaining activity at 0.5 µM (LCK2/ICK): 99.8% | remaining activity at 0.5 µM (DYRK1B): 72.5% | remaining activity at 0.5 µM (CDK7/cyclin H): 81.7% | remaining activity at 0.5 µM (EPHA4): 42.8% | remaining activity at 0.5 µM (CLK4): 52.1% | remaining activity at 0.5 µM (DLK/MAP3K12): 70.6%
